{"source": "patent US20240229101A1", "about": "“METHOD FOR DETECTING INTRACELLULAR ACTIVITY OF CYP ENZYMES” (NATIONAL INSTITUTE OF ADVANCED INDUSTRIAL SCIENCE AND …, priority 2021, published 2024)", "key": {"CYP enzyme group": {"tested_on": "CYP enzyme group", "experiment": "Raman observation of HepaRG hepatocytes, signal of oxidized CYP enzyme group (1370, 1636 cm^-1)", "assay_type": "cell-based, human", "from_the_text": "(§1) A Raman image of the cell group cultured using the above-mentioned method (1) or (2) was constructed by quantitatively measuring the Raman signal using Raman spectroscopy. Here, the “observation” in the present specification includes both detecting a Raman scattering signal of a cell group and acquiring and observing a Raman image of a cell group. […] Details are explained in each Example.\nThe culture medium of the cultured cell group was removed, and the cell group was washed twice with PBS. An observation solution (Live Cell Imaging Solution (A14291DJ, Thermo Fisher Scientific)) was added to the washed cell group. The thus-treated cell group was subjected to Raman observation using the Raman microscope (Non Patent Literature 3) described using FIG. 1 (FIG. 6, FIG. 9 to 11, FIG. 13 to FIG. 21, FIG. 23 to FIG. 26).\nA 40× water immersion objective lens (CFI Apochromat Lambda S 40XC WI) equipped in a Raman microscope was used to excite the Raman scattered light of the cell group and to detect the Raman scattering signal. The excitation light of the Raman scattered light of the cell group was irradiated by condensing a laser beam with a wavelength of 532 nm into a straight line with a predetermined length (hereinafter referred to as a line) using the water immersion objective lens.\n(§2) The flow of detection of Raman scattered light of a cell group that was generated by excitation with excitation light is explained. […] The Raman scattering signal imaged on the slit is then separated by diffraction grating inside the spectroscope and detected by a cooling-type CCD image sensor (PIXIS 400B, Princeton Instruments) used as a photodetector. Raman scattering signals scattered from everywhere on the condensed line can be measured simultaneously and independently by different pixels on the CCD. […] Respective Raman signals were simultaneously detected in an about 133.3 μm region on the direction of the condensed line."}, "CYP3A4": {"target": "T1, CYP3A4 (Homo sapiens, UniProt P08684)", "T1 construct": "endogenous in cells; host or cells: HepaRG cells (human liver tumor-derived; BIOPREDIC International)", "T1 sequence (P08684 whole entry)": "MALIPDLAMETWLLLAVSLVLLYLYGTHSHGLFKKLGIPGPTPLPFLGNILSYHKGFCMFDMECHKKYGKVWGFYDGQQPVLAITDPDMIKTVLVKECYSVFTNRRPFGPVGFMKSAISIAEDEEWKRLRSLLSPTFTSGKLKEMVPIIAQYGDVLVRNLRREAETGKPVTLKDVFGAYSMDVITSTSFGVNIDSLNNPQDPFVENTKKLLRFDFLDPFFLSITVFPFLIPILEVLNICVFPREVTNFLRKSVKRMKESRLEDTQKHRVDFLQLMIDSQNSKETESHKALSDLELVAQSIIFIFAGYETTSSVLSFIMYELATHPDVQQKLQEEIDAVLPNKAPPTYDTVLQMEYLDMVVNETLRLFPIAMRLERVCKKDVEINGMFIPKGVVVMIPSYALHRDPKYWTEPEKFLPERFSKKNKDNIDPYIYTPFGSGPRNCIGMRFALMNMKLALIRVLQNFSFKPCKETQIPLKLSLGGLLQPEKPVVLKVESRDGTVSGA", "experiment": "CYP3A4 activity in cell group by luminescence method (P450-Glo, Luciferin-IPA)", "assay_type": "cell-based", "conditions": "HepaRG pre-induced with 2% DMSO, 2 ng/ml, 48 hr, vs control (FIG. 18)", "method": "In order to confirm the enzyme activity of CYP3A4, which is particularly expressed in liver cells among the CYP enzymes in the cell group subjected to Raman observation, a test using a luminescence method (hereinafter a luminescence test) was performed in parallel with the Raman observation. The cell is group used in the luminescence test was a cell group separated from the cultured cells used in the below-mentioned Raman observation in (5). That is, the cell group cultured under the same conditions and at the same time as the cultured cells used in Raman observation was used. CYP luminescence test was performed using a commercially available luminescence assay kit (P450-Glo-CYP3A4-Assay-and-Screening-System) according to the provided protocol.\nWhen the Luciferin-IPA substrate is converted to luciferin by CYP3A4, it becomes a substrate for luciferase, producing luminescence proportional to the activity of CYP3A4. […] Luciferase (50 μl) was added dropwise to the dispensed substrate-containing medium, and luminescence was caused using the luciferin-luciferase reaction. Luminescence was detected using a micro-plate reader (Synergy HTX, BioTek). The CYP3A4 activity detected by the present luminescence method is shown in FIG. 7, FIG. 14, FIG. 16, FIG. 18, FIG. 20, and FIG. 22."}, "[1]": {"tested_on": "reduced heme b, mainly reduced cytochrome b5", "experiment": "Raman observation of HepaRG hepatocytes, reduced heme b signal (675 cm^-1)", "assay_type": "cell-based, human", "conditions": "HepaRG induced with 4 μM Rifampicin, inhibitor 10 μM for 5 min (FIG. 24)", "from_the_text": "as §1\nThe culture medium of the cultured cell group was removed, and the cell group was washed twice with PBS. An observation solution (Live Cell Imaging Solution (A14291DJ, Thermo Fisher Scientific)) was added to the washed cell group. […]\nas §2"}, "[2]": {"tested_on": "CYP3A4, CYP1A2, CYP2B6, and CYP2C9", "experiment": "Induction of gene expression of CYP enzymes by inducing agents", "assay_type": "cell-based, human", "conditions": "confirmed by the inventors"}}}
{"molecule": "Interleukin-6 [IL-6]", "values": [{"measurement": "CYP activity detected using Raman signals (1636 cm^-1) after suppression", "setting": "CYP enzyme group; HepaRG pre-induced with 2% DMSO, 2 ng/ml, 48 hr, vs control (FIGS. 18, 19)", "result": "downregulation"}, {"measurement": "activity of CYP3A4 (luminescence test) after suppression", "setting": "CYP3A4", "result": "decreases"}]}
{"molecule": "CC[C@]1(C)C[C@@H](OC(=O)CSc2nnc(N)[nH]2)[C@]2(C)[C@H](C)CC[C@]3(CCC(=O)[C@H]32)[C@@H](C)[C@@H]1O", "note": "[Azamulin]", "values": [{"measurement": "Raman signal at a wavenumber of 1636 cm^-1 after inhibition", "setting": "CYP enzyme group; HepaRG induced with 4 μM Rifampicin, inhibitor 10 μM for 5 min (FIG. 23)", "result": "reduces"}, {"measurement": "median value of per-cell Raman signal at 1636 cm^-1 after inhibition", "setting": "CYP enzyme group; HepaRG induced with 4 μM Rifampicin, inhibitor 10 μM for 5 min, vs not administered, statistically significant (FIG. 23)", "result": "decreased"}, {"measurement": "Raman signal with a wavenumber of 675 cm^-1 after inhibition", "setting": "[1]", "result": "did not increase"}]}
{"molecule": "NC(=O)N1c2ccccc2C=Cc2ccccc21", "note": "[Carbamazepine]", "values": [{"measurement": "gene expression of at least one of CYP3A4, CYP1A2, CYP2B6, CYP2C9", "setting": "[2]", "result": "induce gene expression"}]}
{"molecule": "O=C1NC(=O)C(c2ccccc2)(c2ccccc2)N1", "note": "[Phenytoin]", "values": [{"measurement": "gene expression of at least one of CYP3A4, CYP1A2, CYP2B6, CYP2C9", "setting": "[2]", "result": "induce gene expression"}]}
